Measured values published in PubChem BioAssay AID2060498 (Molecular Pharmacology Branch, DTP, NCI, 2025).

System: 171881-019-R-J1-PDC tumor spheroids, viability
Assay: Anticancer human tumor 171881-019-R-J1-PDC patient-derived invasive breast carcinoma cell line growth inhibition [GQUAD]
Details: spheroids with HUVEC and MSC; for IC50: curve of first compound; for viability, T/C: stronger effect = lower value; active = viability on the fitted dose curve at most 10% of control; inactive = the rest
How it was run: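 Viability of tumor cells grown as complex spheroids with endothelial and stromal cells, exposed to drug combinations. Top concentration at or near clinical Cmax (else 10 microM), diluted in half-log increments.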

[1] = second compound 0.0316 µM, first compound 0.0316 µM
[2] = second compound 0.0316 µM, first compound 0.1 µM
[3] = second compound 0.0316 µM, first compound 0.316 µM
[4] = second compound 0.0316 µM, first compound 1 µM
[5] = second compound 0.0316 µM, first compound 3.16 µM
[6] = second compound 0.0316 µM, first compound 10 µM
[7] = second compound 0.1 µM, first compound 0.0316 µM
[8] = second compound 0.1 µM, first compound 0.1 µM
[9] = second compound 0.1 µM, first compound 0.316 µM
[10] = second compound 0.1 µM, first compound 1 µM
[11] = second compound 0.1 µM, first compound 3.16 µM
[12] = second compound 0.1 µM, first compound 10 µM
[13] = second compound 0.316 µM, first compound 0.0316 µM
[14] = second compound 0.316 µM, first compound 0.1 µM
[15] = second compound 0.316 µM, first compound 0.316 µM
[16] = second compound 0.316 µM, first compound 1 µM
[17] = second compound 0.316 µM, first compound 3.16 µM
[18] = second compound 0.316 µM, first compound 10 µM
[19] = second compound 1 µM, first compound 0.0316 µM
[20] = second compound 1 µM, first compound 0.1 µM
[21] = second compound 1 µM, first compound 0.316 µM
[22] = second compound 1 µM, first compound 1 µM
[23] = second compound 1 µM, first compound 3.16 µM
[24] = second compound 1 µM, first compound 10 µM
[25] = second compound 3.16 µM, first compound 0.0316 µM
[26] = second compound 3.16 µM, first compound 0.1 µM
[27] = second compound 3.16 µM, first compound 0.316 µM
[28] = second compound 3.16 µM, first compound 1 µM
[29] = second compound 3.16 µM, first compound 3.16 µM
[30] = second compound 3.16 µM, first compound 10 µM
[31] = second compound 10 µM, first compound 0.0316 µM
[32] = second compound 10 µM, first compound 0.1 µM
[33] = second compound 10 µM, first compound 0.316 µM
[34] = second compound 10 µM, first compound 1 µM
[35] = second compound 10 µM, first compound 3.16 µM
[36] = second compound 10 µM, first compound 10 µM
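For viability, T/C in this document: 100% = DMSO vehicle control viability.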

COc1cccc2c1C(=O)c1c(O)c3c(c(O)c1C2=O)CC(O)(C(=O)CO)CC3OC1CC(N)C(O)C(C)O1 (stereo unspecified) + Cc1[nH]c2ccc(F)cc2c1-c1nc2c3cccnc3c3ncccc3c2[nH]1
0.148 µM: IC50 (second compound 0.1 µM)
0.156 µM: IC50 (second compound 0.316 µM)
inactive: viability, T/C [1] 89.8% | viability, T/C [2] 51.9% | viability, T/C [3] 38.1% | viability, T/C [4] 16.4% | viability, T/C [7] 85.3% | viability, T/C [8] 55.3% | viability, T/C [9] 37.9% | viability, T/C [10] 16.5% | viability, T/C [13] 82.8% | viability, T/C [14] 56.4% | viability, T/C [15] 38.7% | viability, T/C [16] 13.9% | viability, T/C [19] 76.2% | viability, T/C [20] 47% | viability, T/C [21] 40.3% | viability, T/C [22] 14.7% | viability, T/C [25] 22.2% | viability, T/C [26] 17.1% | viability, T/C [27] 18.2% | viability, T/C [31] 38% | viability, T/C [32] 38.9% | viability, T/C [33] 23.1% | viability, T/C [34] 16.5%
active: viability, T/C [5] 0.24% | viability, T/C [6] 0.22% | viability, T/C [11] 0.15% | viability, T/C [12] 0.52% | viability, T/C [17] 0.13% | viability, T/C [18] 0.5% | viability, T/C [23] 0.3% | viability, T/C [24] 0.77% | viability, T/C [28] 9.24% | viability, T/C [29] 0.43% | viability, T/C [30] 0.81% | viability, T/C [35] 0.93% | viability, T/C [36] 0.93%
0.117 µM: IC50 (second compound 1 µM)
0.135 µM: IC50 (second compound 0.0316 µM)
< 0.0316 µM: IC50 (second compound 3.16 µM) | IC50 (second compound 10 µM)

CC1COCCN1c1cc(C2(O)CC3CCC(C2)O3)c2cnn(-c3ccn[nH]3)c2n1 (stereo unspecified) + CN(C)c1ccc(Nc2c3ccc(NC(=O)CCN4CCCC4)cc3nc3cc(NC(=O)CCN4CCCC4)ccc23)cc1
inactive: viability, T/C [1] 48% | viability, T/C [2] 16.6% | viability, T/C [7] 47.5% | viability, T/C [8] 15.7% | viability, T/C [13] 41.9% | viability, T/C [14] 13.6% | viability, T/C [19] 12.1%
active: viability, T/C [3] 5.6% | viability, T/C [4] 1.83% | viability, T/C [5] 1.12% | viability, T/C [6] 0.76% | viability, T/C [9] 5.27% | viability, T/C [10] 1.88% | viability, T/C [11] 1.2% | viability, T/C [12] 1.32% | viability, T/C [15] 4.24% | viability, T/C [16] 1.41% | viability, T/C [17] 1.02% | viability, T/C [18] 0.73% | viability, T/C [20] 4.72% | viability, T/C [21] 2.23% | viability, T/C [22] 0.4% | viability, T/C [23] 0.33% | viability, T/C [24] 0.3% | viability, T/C [25] 1.34% | viability, T/C [26] 0.9% | viability, T/C [27] 0.41% | viability, T/C [28] 0.14% | viability, T/C [29] 0.16% | viability, T/C [30] 0.2% | viability, T/C [31] 0.14% | viability, T/C [32] 0.25% | viability, T/C [33] 0.42% | viability, T/C [34] 0.25% | viability, T/C [35] 0.16% | viability, T/C [36] 0.14%
< 0.0316 µM: IC50 (second compound 0.0316 µM) | IC50 (second compound 0.1 µM) | IC50 (second compound 0.316 µM) | IC50 (second compound 1 µM) | IC50 (second compound 3.16 µM) | IC50 (second compound 10 µM)

C=CC(=O)N1CCN(c2nc(=O)n(-c3c(C)ccnc3C(C)C)c3nc(-c4c(O)cccc4F)c(F)cc23)C(C)C1 (stereo unspecified) + Cc1cnc(CNC(=O)c2c(=O)c3ccc(N4CCCN(C)CC4)nc3n3c2sc2ccccc23)cn1
inactive: viability, T/C [1] 113% | viability, T/C [2] 92.9% | viability, T/C [3] 100% | viability, T/C [4] 103% | viability, T/C [5] 87.2% | viability, T/C [6] 50.9% | viability, T/C [7] 88.3% | viability, T/C [8] 90.8% | viability, T/C [9] 78.4% | viability, T/C [10] 93.2% | viability, T/C [11] 81.6% | viability, T/C [12] 55.8% | viability, T/C [13] 79.2% | viability, T/C [14] 80.4% | viability, T/C [15] 80.9% | viability, T/C [16] 82.2% | viability, T/C [17] 82.6% | viability, T/C [18] 63.4% | viability, T/C [19] 73.4% | viability, T/C [20] 63.2% | viability, T/C [21] 77.7% | viability, T/C [22] 78.1% | viability, T/C [23] 81.8% | viability, T/C [24] 66.5% | viability, T/C [25] 70.6% | viability, T/C [26] 67.5% | viability, T/C [27] 73.2% | viability, T/C [28] 66.3% | viability, T/C [29] 83.3% | viability, T/C [30] 68.9% | viability, T/C [31] 61.2% | viability, T/C [32] 65.1% | viability, T/C [33] 65.7% | viability, T/C [34] 74.5% | viability, T/C [35] 81.7% | viability, T/C [36] 68%
> 10 µM: IC50 (second compound 0.0316 µM) | IC50 (second compound 0.1 µM) | IC50 (second compound 0.316 µM) | IC50 (second compound 1 µM) | IC50 (second compound 3.16 µM) | IC50 (second compound 10 µM)
